Data reported in patent publication US20130165489A1, “Small Molecule Modulators of HIV-1 Capsid Stability and Methods Thereof” (The Trustees of the University of Pennsylvania, priority 2010, published 2013).
Entries after “also recorded” stand apart in the source; their conditions may differ.

Tests used:
[1] = test system: HIV-1 92BR030 (subtype B clinical isolate); assay: Anti-HIV efficacy in human PBMCs, isolate 92BR030; format: cell-based
Method: HIV human peripheral blood mononuclear cell (PBMC) assays were performed as described previously (Lanier et al., 2010, Antimicrob. Agents Chemother. 54:2901-09; Ptak et al., 2008, Antimicrob. Agents Chemother. 52:1302-17). Briefly, fresh PBMCs, seronegative for HIV and hepatitis B virus (HBV), were isolated from blood samples of the screened donors (Biological Specialty Corporation, Colmar, Pa.) by using lymphocyte separation medium (LSM; density, 1.078±0.002 g/ml; Cellgro; Mediatech, Inc.) by following the manufacturer's instructions. Cells were stimulated by incubation in 4 μg/mL phytohemagglutinin (PHA; Sigma) for 48 to 72 h. Mitogenic stimulation was maintained by the addition of 20 U/mL recombinant human interleukin-2 (rhIL-2; R&D Systems, Inc.) to the culture medium. PHA-stimulated PBMCs from at least two donors were pooled, diluted in fresh medium, and added to 96-well plates at 5×10^4 cells/well. Cells were infected (final multiplicity of infection [MOI] of ≅0.1) in the presence of 9 different concentrations of test compounds (triplicate wells/concentration) and incubated for 7 days. To determine the level of virus inhibition, cell-free supernatant samples were collected for analysis of reverse transcriptase activity (Buckheit Jr., et al., 1991, AIDS Res. Hum. Retroviruses 7:295-302). Following removal of supernatant samples, compound cytotoxicity was measured by the addition of 3-(4,5-dimethylthiazol-2-yl)-5-(3-carboxymethoxyphenyl)-2-(4-sulfophenyl)-2H-tetrazolium (MTS; CellTiter 96 reagent; Promega) by following the manufacturer's instructions.
79:6089-6101; Jagodzinski et al., 2000, J. Clin. Microbiol. 38:1247-49; Michael et al., 1999, J. Clin. Microbiol. 37:2557-63 and Vahey et al., 1999, J. Clin. Microbiol. 37:2533-37); HIV-1 Group M isolate 931N101 (Subtype C, CCR5-tropic) from Dr. Robert Bollinger and the UNAIDS Network for HIV Isolation and Characterization (Gao et al., 1994, AIDS Res. Hum. Retroviruses 10:1359-68); HIV-1 Group M isolate CMUO8 (Subtype E, CXCR4-tropic) from Dr. Kenrad Nelson and the UNAIDS Network for HIV Isolation and Characterization (Gao et al., 1994, AIDS Res. Hum. Retroviruses 10:1359-68); HIV-1 Group M isolate G3 (Subtype G, CCR5-tropic) from Alash'le Abimiku (Abimiku et al., 1994, Aids Res. Hum. Retrovir. 10:1581-83); HIV-1 Group 0 isolate BCF02 (CCR5-tropic) from Sentob Saragosti, Françoise Brun-Vézinet, and François Simon (Loussertajaka et al., 1995, J. Virol. 69:5640-49); and SIV isolate Mac251 from Dr. Ronald Desrosiers (Daniel et al., 1985, Science 228:1201-04).

[2] = test system: HIV-1 92UG031 (subtype A clinical isolate); assay: Anti-HIV efficacy in human PBMCs, isolate 92UG031; format: cell-based
Method: (§1) HIV human peripheral blood mononuclear cell (PBMC) assays were performed as described previously (Lanier et al., 2010, Antimicrob. Agents Chemother. 54:2901-09; Ptak et al., 2008, Antimicrob. Agents Chemother. 52:1302-17). Briefly, fresh PBMCs, seronegative for HIV and hepatitis B virus (HBV), were isolated from blood samples of the screened donors (Biological Specialty Corporation, Colmar, Pa.) by using lymphocyte separation medium (LSM; density, 1.078±0.002 g/ml; Cellgro; Mediatech, Inc.) by following the manufacturer's instructions. Cells were stimulated by incubation in 4 μg/mL phytohemagglutinin (PHA; Sigma) for 48 to 72 h. Mitogenic stimulation was maintained by the addition of 20 U/mL recombinant human interleukin-2 (rhIL-2; R&D Systems, Inc.) to the culture medium. PHA-stimulated PBMCs from at least two donors were pooled, diluted in fresh medium, and added to 96-well plates at 5×10^4 cells/well. Cells were infected (final multiplicity of infection [MOI] of ≅0.1) in the presence of 9 different concentrations of test compounds (triplicate wells/concentration) and incubated for 7 days. […] Following removal of supernatant samples, compound cytotoxicity was measured by the addition of 3-(4,5-dimethylthiazol-2-yl)-5-(3-carboxymethoxyphenyl)-2-(4-sulfophenyl)-2H-tetrazolium (MTS; CellTiter 96 reagent; Promega) by following the manufacturer's instructions. […]

[3] = test system: HIV-1 89BZ167 (subtype B clinical isolate); assay: Anti-HIV efficacy in human PBMCs, isolate 89BZ167; format: cell-based
Method: as §1

[4] = test system: HIV-1 CMU08 (subtype E clinical isolate); assay: Anti-HIV efficacy in human PBMCs, isolate CMU08; format: cell-based
Method: as §1

[5] = test system: HIV-1 93BR020 (subtype F clinical isolate); assay: Anti-HIV efficacy in human PBMCs, isolate 93BR020; format: cell-based
Method: as §1

[6] = in vitro; format: cell-based; details: human
Method: HIV human peripheral blood mononuclear cell (PBMC) assays were performed as described previously (Lanier et al., 2010, Antimicrob. Agents Chemother. 54:2901-09; Ptak et al., 2008, Antimicrob. Agents Chemother. 52:1302-17). Briefly, fresh PBMCs, seronegative for HIV and hepatitis B virus (HBV), were isolated from blood samples of the screened donors (Biological Specialty Corporation, Colmar, Pa.) by using lymphocyte separation medium (LSM; density, 1.078±0.002 g/ml; Cellgro; Mediatech, Inc.) by following the manufacturer's instructions. Cells were stimulated by incubation in 4 μg/mL phytohemagglutinin (PHA; Sigma) for 48 to 72 h. Mitogenic stimulation was maintained by the addition of 20 U/mL recombinant human interleukin-2 (rhIL-2; R&D Systems, Inc.) to the culture medium. PHA-stimulated PBMCs from at least two donors were pooled, diluted in fresh medium, and added to 96-well plates at 5×10^4 cells/well. Cells were infected (final multiplicity of infection [MOI] of ≅0.1) in the presence of 9 different concentrations of test compounds (triplicate wells/concentration) and incubated for 7 days. […] Following removal of supernatant samples, compound cytotoxicity was measured by the addition of 3-(4,5-dimethylthiazol-2-yl)-5-(3-carboxymethoxyphenyl)-2-(4-sulfophenyl)-2H-tetrazolium (MTS; CellTiter 96 reagent; Promega) by following the manufacturer's instructions.

[7] = target: HIV-1NL4-3 CA (Human immunodeficiency virus type 1 group M subtype B, UniProt P12493); assay: Isothermal titration calorimetry; format: binding
Method: Isothermal titration calorimetric experiments were performed at 10, 15, and 25° C. using a high-precision ITC200 titration calorimetric system from MicroCal LLC (Northampton, Mass.). All titrations were performed by adding CMPD-E in steps of […]. All solutions contained within the calorimetric cell and injector syringe were prepared in the same buffer, 25 mM Tris-HCl, pH 7.5 with 150 mM NaCl and 3% DMSO. The concentrations of CA and CMPD-E were 35 and 600 μM, respectively. The heat evolved upon injection of CMPD-E was obtained from the integral of the calorimetric signal. The heat associated with the binding reaction was obtained by subtracting the heat of dilution from the heat of reaction. The individual heats were plotted against the molar ratio, and the values for the number of binding sites (n), the enthalpy change (ΔH) and dissociation constant (KD=1/KA) were obtained by nonlinear regression of the data.

[8] = target: HIV-1 CA (Human immunodeficiency virus type 1 group M subtype B, UniProt P12493); assay: In vitro CA assembly assay (turbidity); format: biochemical; details: CA 30 μM; compound 147 μM; turbidity at 350 nm
Method: The effect of compound CMPD-E on the assembly of HIV-1 CA was measured by monitoring turbidity at 350 nm using a modification of the method of Tian et al. (Tian et al., 2009, Bioorg. Med. Chem. Lett. 19:2162-67). Briefly, 1.0 μL of concentrated CMPD-E in 100% DMSO was added to a 74-μL aqueous solution (2 mL of 5 M NaCl mixed with 1 mL of 200 mM NaH2PO4, pH 8.0). To initiate the assembly reaction, 25 μL of purified CA protein (120 μM) was added. An identical reaction mixture was prepared, omitting the compound (i.e., DMSO only). Samples were allowed to equilibrate for 2 min prior to reading. Readings were taken at 350 nm every 10 s for 30 min. CA was used at a final concentration of 30 μM, and CMPD-E at a final concentration of 147 μM.

[9] = test system: JEV; assay: CPE assay, JEV; format: cell-based, Japanese encephalitis virus
[10] = test system: Chikungunya; assay: CPE assay, Chikungunya; format: cell-based
[11] = test system: recombinant luciferase-expressing HIV-1 bearing the envelope glycoprotein of the HIV-1YU-2 strain; assay: Single-round infection assay, HIV-1 with YU-2 envelope on Cf2Th-CCR5 cells
[12] = Human immunodeficiency virus 1, PBMC

## O=C(O)c1ccc(-c2nc(-c3ccccc3)c(-c3ccccc3)[nH]2)cc1 [CMPD-E, 4-(4,5-diphenyl-1H-imidazol-2-yl)benzoic acid]
[1]; 92BR030, PBMC
  Antiviral index (TC50/IC50): >1.46
[1]; [12]
  IC50: 68.7 µM
[1]; primary PBMCs
  inhibition of HIV-1 92BR030 replication in PBMCs: could inhibit
[2]; [12]
  IC50: 93.6 µM
[2]; PBMC
  Antiviral index (TC50/IC50): >1.07
[3]; [12]
  IC50: 92.9 µM
[3]; PBMC
  Antiviral index (TC50/IC50): >1.08
[4]; [12]
  IC50: 100 µM
[4]; PBMC
  Antiviral index (TC50/IC50): >1
[5]; [12]
  IC50: 65.6 µM
[5]; PBMC
  Antiviral index (TC50/IC50): >1.53
[6]
  CC50 at 7 days: > 100 µM
[7]
  Kd: 85 µM
[7]; ITC, 25° C.
  change in Gibbs energy: -6.6 kcal/mol
  change in enthalpy (ΔH): -7.3 kcal/mol
  change in entropy (ΔS): −5.0 cal/(K×mol)
[7]; from temperature dependence of the enthalpy
  heat capacity change: −220 cal/(K×mol)
[8]
  effect on assembly of HIV-1 CA in vitro: prevents the assembly of the capsid; also recorded: prevented assembly of CA in vitro; also recorded: preventing the assembly of the capsid
[9]
  effect on Japanese encephalitis virus replication: no inhibitory effects
[9]; Japanese encephalitis virus
  IC50: > 100 µM
[10]
  effect on Chikungunya virus replication: no inhibitory effects
[10]; Chikungunya virus
  IC50: > 100 µM
[11]; Cf2Th-CCR5 cells, YU-2 envelope
  activity in the single-round infection assay: retained the activity of the parental molecule; also recorded: retained all of the inhibitory capability of the parental compound
[11]; Human immunodeficiency virus 1, Cf2Th-CCR5, read-out: IC50 against HIV-1 (single-round infection)
  IC50: 22.5 ± 1.1 µM
